Converted amounts (≈) assume the structure as drawn.
Key:
[1] = tested on: S. epidermidis ATCC 12228; assay: MIC, twofold microdilution, standard strain; assay type: cell-based; settings: Staphylococcus epidermidis, ATCC12228, 18 h
PC3 cells = assay: MTT assay, cytotoxic activity; assay type: cell-based, human; settings: Homo sapiens, PC-3, 72 h, MTT, 72 h
Procedure, shortened: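 Cytotoxicity readout: relative MTT level (%), i.e. absorbance of compound-treated PC3 cells divided by that of untreated controls, ×100. Cultures were kept in a humidified 37 °C, 5% CO2 incubator.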

S. epidermidis 4341 = assay: MIC, twofold microdilution, clinical strain; assay type: cell-based; settings: Staphylococcus epidermidis, 18 h
[2] = tested on: clinical bacterial strains; assay: MIC, clinical isolates as groups of strains; assay type: cell-based
P. aeruginosa 659 = assay: MIC, twofold microdilution, clinical strain; assay type: cell-based; settings: Pseudomonas aeruginosa, 18 h
E. coli 520 = assay: MIC, twofold microdilution, clinical strain; assay type: cell-based; settings: Escherichia coli, 18 h
E. cloacae 8 = assay: MIC, twofold microdilution, clinical strain; assay type: cell-based, Escherichia cloacae; settings: Enterobacter cloacae, 8; clinical strain, 18 h
S. aureus 5595 = assay: MIC, twofold microdilution, clinical strain; assay type: cell-based; settings: Staphylococcus aureus, 18 h
S. epidermidis 5253 = assay: MIC, twofold microdilution, clinical strain; assay type: cell-based, Staphylococcus epidermidis; settings: Staphylococcus epidermidis, 5253, 18 h
S. pasteuri KR 4358 = assay: MIC, twofold microdilution, clinical strain; assay type: cell-based; settings: Staphylococcus pasteuri, KR4358, 18 h
P. aeruginosa ATCC 15442 = assay: MIC, twofold microdilution, standard strain; assay type: cell-based, Pseudomonas aeruginosa; settings: for MIC: Pseudomonas aeruginosa, ATCC15442, standard strain, 18 h
S. aureus NCTC 4163 = assay: MIC, twofold microdilution, standard strain; assay type: cell-based; settings: Staphylococcus aureus, NCTC4163, 18 h
E. coli 951 = assay: MIC, twofold microdilution, clinical strain; assay type: cell-based; settings: Escherichia coli, 18 h
E. coli ATCC 25922 = assay: MIC, twofold microdilution, standard strain; assay type: cell-based, Escherichia coli; settings: for MIC: Escherichia coli, ATCC25922, standard strain, 18 h
S. aureus ATCC 25923 = assay: MIC, twofold microdilution, standard strain; assay type: cell-based; settings: Staphylococcus aureus, ATCC25923, 18 h
S. aureus 180 = assay: MIC, twofold microdilution, clinical strain; assay type: cell-based; settings: Staphylococcus aureus, 18 h
S. aureus ATCC 6538 = assay: MIC, twofold microdilution, standard strain; assay type: cell-based, Staphylococcus aureus; settings: for MIC: Staphylococcus aureus, ATCC6538, standard strain, 18 h
S. aureus ATCC 29213 = assay: MIC, twofold microdilution, standard strain; assay type: cell-based; settings: Staphylococcus aureus, ATCC29213, 18 h
M. tuberculosis H37Rv = assay: Tuberculostatic activity, Microplate Alamar Blue Assay (MIC); assay type: cell-based, Mycobacterium tuberculosis; settings: Mycobacterium tuberculosis, H37RV; MABA; read-out: MIC M. tuberculosis H37Rv
E. coli 600 = assay: MIC, twofold microdilution, clinical strain; assay type: cell-based, Escherichia coli; settings: Escherichia coli, 600, 18 h
[3] = tested on: M. tuberculosis Spec. 192; assay: Tuberculostatic activity, Microplate Alamar Blue Assay (MIC); assay type: cell-based; settings: Mycobacterium tuberculosis, MABA, read-out: MIC M. tuberculosis Spec. 192 (sensitive to tuberculostatics)
[4] = tested on: Staphylococci (standard strains); assay: MIC, standard Gram-positive strains as a panel; assay type: cell-based, S. aureus, S. epidermidis; settings: standard Gram-positive strains of Table 1
S. aureus T5591 = assay: MIC, twofold microdilution, clinical strain; assay type: cell-based, Staphylococcus aureus; settings: Staphylococcus aureus, T5591, 18 h
P. aeruginosa 37 = assay: MIC, twofold microdilution, clinical strain; assay type: cell-based; settings: Pseudomonas aeruginosa, 18 h
[5] = tested on: S. epidermidis ATCC 35984; assay: MIC, twofold microdilution, standard strain; assay type: cell-based; settings: Staphylococcus epidermidis, ATCC35984, 18 h
[6] = MTT assay, cytotoxic activity; assay type: cell-based; settings: human, HaCaT cells (immortal keratinocytes); MTT, 72 h, normal cell line; read-out: IC50 HaCaT
Procedure, shortened: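 Viability was calculated as A/B × 100%, with A the absorbance of treated samples and B that of untreated controls, from MTT reduction. Cells were cultured in a humidified 37 °C/5% CO2 incubator.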

K. pneumoniae 28 = assay: MIC, twofold microdilution, clinical strain; assay type: cell-based; settings: Klebsiella pneumoniae, 18 h
S. epidermidis KR4243/1 = assay: MIC, twofold microdilution, clinical strain; assay type: cell-based; settings: Staphylococcus epidermidis, 18 h
S. aureus T5595 = assay: MIC, twofold microdilution, clinical strain; assay type: cell-based, Staphylococcus aureus; settings: Staphylococcus aureus, T5595, 18 h
K. pneumoniae 510 = assay: MIC, twofold microdilution, clinical strain; assay type: cell-based, Klebsiella pneumoniae; settings: for MIC: Klebsiella pneumoniae, 510, clinical strain, 18 h

| Compound | MIC [1] | IC50 (PC3 cells) | MIC (S. epidermidis 4341) | MIC (P. aeruginosa 659) | MIC (E. coli 520) | MIC (E. cloacae 8) | MIC (S. aureus 5595) | MIC (S. epidermidis 5253) | MIC (S. pasteuri KR 4358) | MIC (P. aeruginosa ATCC 15442) | MIC (S. aureus NCTC 4163) | MIC (E. coli 951) | MIC (E. coli ATCC 25922) | MIC (S. aureus ATCC 25923) | MIC (S. aureus 180) | MIC (S. aureus ATCC 6538) | MIC (S. aureus ATCC 29213) | MIC (M. tuberculosis H37Rv) | MIC (E. coli 600) | MIC [3] | other results |
| --- | --- | --- | --- | --- | --- | --- | --- | --- | --- | --- | --- | --- | --- | --- | --- | --- | --- | --- | --- | --- | --- |
| O=C(O)c1cn(C2CC2)c2cc(N3CCN(C(=O)CCCCBr)CC3)c(F)cc2c1=O [Compound 11, 7-[4-(5-Bromopentanoyl)-piperazin-1-yl]-1-cyclopropyl-6-fluoro-4-oxo-1,4-dihydro-quinoline-3-carboxylic Acid] | 0.1 µg/mL (≈ 0.202 µM) | 81.7 ± 8.9 µM | 25.6 µg/mL (≈ 51.8 µM) | 0.8 µg/mL (≈ 1.62 µM) | 0.1 µg/mL (≈ 0.202 µM) | 0.05 µg/mL (≈ 0.101 µM) | 0.8 µg/mL (≈ 1.62 µM) | > 25.6 µg/mL | 0.2 µg/mL (≈ 0.405 µM) | 0.1 µg/mL (≈ 0.202 µM) | 0.1 µg/mL (≈ 0.202 µM) | 0.4 µg/mL (≈ 0.809 µM) | 0.025 µg/mL (≈ 0.0506 µM) | 0.4 µg/mL (≈ 0.809 µM) | 0.8 µg/mL (≈ 1.62 µM) | 0.1 µg/mL (≈ 0.202 µM) | 0.2 µg/mL (≈ 0.405 µM) | 0.5 µg/mL (≈ 1.01 µM) | 0.05 µg/mL (≈ 0.101 µM) | 0.5 µg/mL (≈ 1.01 µM) | share of CP inhibitory activity ([2]; S. aureus 180 and 5595): 62.5%; MIC used in biofilm eradication assay, P. aeruginosa 15442 (P. aeruginosa ATCC 15442; Table S1, MIC): 0.100 µg/mL (≈ 0.202 µM); MIC used in biofilm eradication assay, E. coli ATCC 25922 (E. coli ATCC 25922; Table S1, MIC): 0.025 µg/mL (≈ 0.0506 µM); MIC used in biofilm eradication assay, S. aureus 6538 (S. aureus ATCC 6538; Table S1, MIC): 0.100 µg/mL (≈ 0.202 µM); fold more active than CP toward standard Staphylococci [4]: 1.25–2.5 fold; MIC (S. aureus T5591): 0.8 µg/mL (≈ 1.62 µM); MIC (P. aeruginosa 37): 0.8 µg/mL (≈ 1.62 µM); MIC [5]: 0.1 µg/mL (≈ 0.202 µM); IC50 at 72 h [6]: 80.1 ± 8.1 µM; MIC (K. pneumoniae 28): > 25.6 µg/mL; MIC (S. epidermidis KR4243/1): 0.4 µg/mL (≈ 0.809 µM); MIC (S. aureus T5595): 0.8 µg/mL (≈ 1.62 µM); share of the reference (CP) activity (K. pneumoniae 510; Klebsiella pneumoniae rods): 62.5%; MIC (K. pneumoniae 510): 6.4 µg/mL (≈ 12.9 µM) |
| O=C(O)c1cn(C2CC2)c2cc(N3CCN(C(=O)CCC(F)(F)F)CC3)c(F)cc2c1=O [Compound 15, 7-[4-(4,4,4-Trifluorobutyryl)-piperazin-1-yl]-1-cyclopropyl-6-fluoro-4-oxo-1,4-dihydro-quinoline-3-carboxylic Acid] | 0.2 µg/mL (≈ 0.439 µM) | 15.7 ± 3.8 µM | > 25.6 µg/mL | > 25.6 µg/mL | 3.2 µg/mL (≈ 7.03 µM) | > 25.6 µg/mL | 0.5 µg/mL (≈ 1.1 µM) | > 25.6 µg/mL | 0.2 µg/mL (≈ 0.439 µM) | 1 µg/mL (≈ 2.2 µM) | 0.2 µg/mL (≈ 0.439 µM) | > 25.6 µg/mL | 1.6 µg/mL (≈ 3.51 µM) | 0.2 µg/mL (≈ 0.439 µM) | 0.5 µg/mL (≈ 1.1 µM) | 0.2 µg/mL (≈ 0.439 µM) | 0.2 µg/mL (≈ 0.439 µM) | 64 µg/mL (≈ 141 µM) | 3.2 µg/mL (≈ 7.03 µM) | 64 µg/mL (≈ 141 µM) | share of the reference (CP) activity ([2]; S. aureus T5595 and T5591): 62.5%; MIC ([4]; read-out: MIC toward standard Staphylococci (range over strains)): 0.2 µg/mL (≈ 0.439 µM); MIC (S. aureus T5591): 0.4 µg/mL (≈ 0.878 µM); MIC (P. aeruginosa 37): > 25.6 µg/mL; MIC [5]: 0.2 µg/mL (≈ 0.439 µM); IC50 at 72 h [6]: 85.5 ± 9.2 µM; MIC (K. pneumoniae 28): > 25.6 µg/mL; MIC (S. epidermidis KR4243/1): 0.2 µg/mL (≈ 0.439 µM); MIC (S. aureus T5595): 0.4 µg/mL (≈ 0.878 µM); MIC (K. pneumoniae 510): > 25.6 µg/mL |

Reference: article PMC10233829 (ACS Omega, 2023)
